This is an account of results in patent US20150105252A1, “SUBSTITUTED PYRAZOLES AS HERBICIDES” (E I DU PONT DE NEMOURS AND COMPANY, priority 2013, published 2015).

Structures are written as SMILES.

Experiment [1] relates to kochia. Description: Test A postemergence. The format is in vivo, Kochia scoparia. The method in brief:
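Greenhouse test in loam soil/sand blend; compounds formulated in non-phytotoxic solvent with surfactant, applied as preemergence directed soil spray or postemergence to plants 2–10 cm tall at one- to two-leaf stage. Injury rated visually versus untreated controls after approximately 10 days on a 0 (no effect) to 100 (complete control) scale.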

The subject of another experiment is barley. Description: Test C postemergence. Type of experiment: in vivo, Hordeum vulgare.
A further experiment deals with Russian thistle. Description: Test D postemergence. Type of experiment: in vivo, Salsola kali. As to conditions: scale 0 to 100; for Plant response rating, Russian Thistle: 16 g ai/ha. The text has this:
Seeds of plant species selected from bluegrass (annual bluegrass, Poa annua), blackgrass (Alopecurus myosuroides), canarygrass (littleseed canarygrass, Phalaris minor), chickweed (common chickweed, Stellaria media), galium (catchweed bedstraw, Galium aparine), bromegrass, downy (downy bromegrass, Bromus tectorum), field poppy (Papaver rhoeas), field violet (Viola arvensis), foxtail, green (green foxtail, Setaria viridis), deadnettle (henbit deadnettle, Lamium amplexicaule), ryegrass, Italian (Italian ryegrass, Lolium multiflorum), kochia (Kochia scoparia), lambsquarters (Chenopodium album), oilseed rape (Brassica napus), pigweed (redroot pigweed, Amaranthus retroflexus), chamomile (scentless chamomile, Matricaria inodora), speedwell (bird's-eye speedwell, Veronica persica), barley, spring (spring barley, Hordeum vulgare), wheat, spring (spring wheat, Triticum aestivum), buckwheat, wild (wild buckwheat, Polygonum convolvulus), mustard, wild (wild mustard, Sinapis arvensis), oat, wild (wild oat, Avena fatua), radish, wild (wild radish, Raphanus raphanistrum), windgrass (Apera spica-venti), Russian thistle (Salsola kali), barley, winter (winter barley, Hordeum vulgare), and wheat, winter (winter wheat, Triticum aestivum) were planted into a silt loam soil and treated preemergence with test chemicals formulated in a non-phytotoxic solvent mixture which included a surfactant.
At the same time, these species were planted in pots containing Redi-Earth® planting medium (Scotts Company, 14111 Scottslawn Road, Marysville, Ohio 43041) comprising spaghnum peat moss, vermiculite, wetting agent and starter nutrients and treated with postemergence applications of the test chemicals formulated in the same manner. Plants ranged in height from 2 to 18 cm (1- to 4-leaf stage). Treated plants and controls were maintained in a controlled growth environment for 14 to 21 days after which time all species were compared to controls and visually evaluated. Plant response ratings, summarized in Table D, are based on a scale of 0 to 100 where 0 is no effect and 100 is complete control. A dash (-) response means no test result.

Another experiment has as its system pigweed, palmer. As to the kind of experiment: Test F preemergence. Type of experiment: in vivo, Amaranthus palmeri. The text has this: (§1) Seeds of plant species selected from corn (Zea mays), soybean (Glycine max), velvetleaf (Abutilon theophrasti), lambsquarters (Chenopodium album), wild poinsettia (Euphorbia heterophylla), pigweed, palmer (palmer pigweed, Amaranthus palmeri), common waterhemp (Amaranthus rudis), surinam grass (Brachiaria decumbens), large crabgrass (Digitaria sanguinalis), crabgrass, Brazil (Brazilian crabgrass, Digitaria horizontalis), fall panicum (Panicum dichotomiflorum), giant foxtail (Setaria faberii), green foxtail (Setaria viridis), goosegrass (Eleusine indica), johnsongrass (Sorghum halepense), common ragweed (Ambrosia elation), barnyardgrass (Echinochloa crus-galli), southern sandbur (Cenchrus echinatus), arrowleaf sida (Sida rhombifolia), Italian ryegrass (Lolium multiflorum), dayflower, VA (Virginia (VA) dayflower, Commelina virginica), field bindweed (Convolvulus arvensis), cocklebur (common cocklebur, Xanthium strumarium), morningglory (Ipomoea coccinea), nightshade (eastern black nightshade, Solanum ptycanthum), kochia (Kochia scoparia), yellow nutsedge (Cyperus esculentus), and hairy beggarticks (Bidens pilosa), were planted into a silt loam soil and treated preemergence with test chemicals formulated in a non-phytotoxic solvent mixture which included a surfactant.
(§2) At the same time, plants from these crop and weed species and also horseweed (Canada horseweed, Conyza canadensis), smartweed (ladysthumb smartweed, Polygonum persicaria), waterhemp_RES1, (ALS & Triazine resistant common waterhemp, Amaranthus rudis), and waterhemp_RES2, (ALS & HPPD resistant common waterhemp, Amaranthus rudis) were treated with postemergence applications of test chemicals formulated in the same manner. Plants ranged in height from 2 to 18 cm for postemergence treatments (1- to 4-leaf stage). Treated plants and controls were maintained in a greenhouse for 14 to 21 days, after which time all species were compared to controls and visually evaluated. Plant response ratings, summarized in Table F, are based on a scale of 0 to 100 where 0 is no effect and 100 is complete control. A dash (-) response means no test result.

For the next experiment, the system named is Italian ryegrass. As to the kind of experiment: Test F preemergence. The format is in vivo, Lolium multiflorum.
From the text: as §1, §2

Experiment [2] concerns kochia. As to the kind of experiment: Test F preemergence. The format is in vivo, Kochia scoparia.
From the text: as §1, §2

Setting [3] is: Postemergence, 500 g ai/ha, 0 to 100 scale (0 no effect, 100 complete control).
The mark [4] stands for this setting: postemergence, 125 g ai/ha, about 10 days, visual rating on 0 to 100 scale (0 no effect, 100 complete control).
Setting [5] is: 250 g ai/ha, scale 0 to 100 (0 no effect, 100 complete control).
[6] abbreviates: 125 g ai/ha, scale 0 to 100, 0 no effect, 100 complete control.
The mark [7] stands for this setting: Preemergence, 62 g ai/ha, scale 0 to 100.
The mark [8] stands for this setting: Preemergence, 125 g ai/ha, scale 0 to 100.
[9] abbreviates: Preemergence, 250 g ai/ha, scale 0 to 100.
The mark [10] stands for this setting: preemergence, 16 g ai/ha, scale 0 to 100, 100 is complete control.
Setting [11] is: Preemergence, 31 g ai/ha, scale 0 to 100.
[12] abbreviates: preemergence, 8 g ai/ha, scale 0 to 100, 100 is complete control.

As to `CCCc1cc(C(=O)NCC(F)(F)F)nn1Cc1ccnc(OC(F)F)c1` [Compound 127], the “Kochia plant response rating” value in the experiment on kochia [1] (setting [3]) is 100; in the experiment on kochia [1] (setting [4]), 90.

With `CCc1cc(C(=O)NOC(C)C)nn1Cc1ccnc(OC(F)F)c1` [Compound 126], the “Kochia plant response rating” value with kochia [1] (setting [3]) and in the experiment with kochia [1] (setting [4]) was 100 in each case.

For the molecule `CCCNC(=O)c1cc(OCC)n(Cc2ccnc(OC(F)F)c2)n1` [Compound 136], the “Kochia plant response rating” value with kochia [1] (setting [3]) and with kochia [1] (setting [4]) was 90 throughout.

Regarding `CCONC(=O)c1cc(CC)n(Cc2cccc(OC(F)(F)F)c2)n1` [Compound 72], the “Plant response rating, Barley” value in the experiment on barley (setting [5]) is given as 10.

On to `Cc1cc(C(=O)NCC(F)(F)F)nn1Cc1ccnc(C(F)(F)F)c1` [Compound 74], for which, in the experiment with Russian thistle (Postemergence), the “Plant response rating, Russian Thistle” value was 0. Moreover, the “Russian Thistle plant response rating” value in the experiment on Russian thistle (Postemergence, 31 g ai/ha) came to 0; in the experiment with Russian thistle (Postemergence, 125 g ai/ha), 60; with Russian thistle (postemergence, 62 g ai/ha) it was 0. Moreover, the “Plant response rating, Barley” value with barley (setting [5]) amounted to 5.

As to `CCCNC(=O)c1cc(CC)n(Cc2cccc(OC(F)(F)F)c2)n1` [Compound 27], the results for the “Plant response rating, Barley” value with barley (setting [6]) and in the experiment on barley (setting [5]) were 20 and 30, respectively.

For the molecule `CCCc1cc(C(=O)NC(C)C)nn1Cc1cc(C(F)(F)F)nn1C` [Compound 201], the “Plant response rating, Pigweed, Palmer” value in the experiment with pigweed, palmer (setting [7]) is given as 40; in the experiment with pigweed, palmer (setting [8]), 65; with pigweed, palmer (setting [9]), 90; in the experiment with pigweed, palmer (setting [10]), 0. In addition, the “Plant response rating, Italian Ryegrass” value is given as 30 in the experiment on Italian ryegrass (setting [7]), 75 with Italian ryegrass (setting [8]), 75 in the experiment on Italian ryegrass (setting [9]) and 0 in the experiment on Italian ryegrass (setting [10]). For the same molecule, the “Plant response rating, Kochia” value stood at 90 in the experiment on kochia [2] (setting [7]), 100 in the experiment with kochia [2] (setting [8]), 100 with kochia [2] (setting [9]) and 0 in the experiment with kochia [2] (setting [10]).

Regarding `CCc1cc(C(=O)NCC(F)(F)F)nn1Cc1cccc(OC(F)(F)F)c1` [Compound 20], the “Plant response rating, Barley” value with barley (setting [6]) and in the experiment on barley (setting [5]) was 30 throughout.

Turning to `CCc1cc(-c2ccc(C(F)(F)F)cc2)nn1Cc1ccnc(C(F)(F)F)c1` [Compound 110], the “Plant response rating, Pigweed, Palmer” value with pigweed, palmer (setting [11]) was determined as 95; in the experiment on pigweed, palmer (setting [7]) it was 100; with pigweed, palmer (setting [8]) it was 100; with pigweed, palmer (setting [12]) it was 70; in the experiment on pigweed, palmer (setting [10]) it was 90. For the same molecule, the “Plant response rating, Italian Ryegrass” value in the experiment with Italian ryegrass (setting [11]) is 20; in the experiment on Italian ryegrass (setting [7]), 20; with Italian ryegrass (setting [8]), 60; in the experiment on Italian ryegrass (setting [12]), 0; in the experiment with Italian ryegrass (setting [10]), 0. Moreover, the “Plant response rating, Kochia” value in the experiment with kochia [2] (setting [11]) was determined as 70; in the experiment on kochia [2] (setting [7]) it was 80; in the experiment with kochia [2] (setting [8]), 90; in the experiment on kochia [2] (setting [12]), 20; in the experiment on kochia [2] (setting [10]), 25.

Consider `CCc1cc(C(=O)NC2CC2)nn1Cc1ccnc(C(F)(F)F)c1` [Compound 76], for which the “Plant response rating, Russian Thistle” value with Russian thistle (Postemergence) is 5. In addition, the “Russian Thistle plant response rating” value in the experiment on Russian thistle (Postemergence, 31 g ai/ha) is recorded as 5; in the experiment on Russian thistle (Postemergence, 125 g ai/ha) it was 10; with Russian thistle (Postemergence, 250 g ai/ha) it was 40; with Russian thistle (postemergence, 62 g ai/ha), 5.

Regarding `CCOc1cc(C(=O)NCC(F)(F)F)nn1Cc1ccnc(OC(F)F)c1` [Compound 128], the “Kochia plant response rating” value with kochia [1] (setting [3]) and in the experiment on kochia [1] (setting [4]) was 90 throughout.

Consider `CCc1cc(C(=O)NCC(F)(F)F)nn1Cc1ccnc(Br)c1` [Compound 224], for which the “Plant response rating, Pigweed, Palmer” value is recorded as 100 in the experiment on pigweed, palmer (setting [7]); 100 with pigweed, palmer (setting [8]); 100 with pigweed, palmer (setting [9]). Besides, the “Plant response rating, Italian Ryegrass” value in the experiment with Italian ryegrass (setting [7]) was 20; in the experiment with Italian ryegrass (setting [8]) it was 0; in the experiment with Italian ryegrass (setting [9]), 60. Moreover, the figures for the “Plant response rating, Kochia” value with kochia [2] (setting [7]), in the experiment with kochia [2] (setting [8]) and with kochia [2] (setting [9]) were 90, 100 and 100, respectively.

On to `CCc1cc(C(=O)NOC(C)C)nn1Cc1cccc(OC(F)(F)F)c1` [Compound 70], for which the “Plant response rating, Russian Thistle” value in the experiment on Russian thistle (Postemergence) turned out to be 0. The “Russian Thistle plant response rating” value was 80 with Russian thistle (Postemergence, 31 g ai/ha); 85 in the experiment on Russian thistle (Postemergence, 125 g ai/ha); 90 in the experiment with Russian thistle (Postemergence, 250 g ai/ha); 80 in the experiment on Russian thistle (postemergence, 62 g ai/ha). The “Plant response rating, Barley” value in the experiment with barley (setting [5]) was found to be 25.

`CCCc1cc(C(=O)NC2CC2)nn1Cc1ccnc(OC(F)F)c1` [Compound 205]: the “Kochia plant response rating” value came out at 90 in the experiment with kochia [1] (Postemergence, 125 g ai/ha, 0 to 100 scale, 0 no effect, 100 complete control) and 90 in the experiment on kochia [1] (setting [3]).
